Measured values taken from patent US20250263376A1, “(E)-N-CINNAMOYLAMINOALKANOLS WITH MELANOGENESIS INHIBITORY ACTIVITY” (Uniwersytet Jagiellonski, priority 2024, published 2025).

Assays:
[1] = system: Balb/c 3T3 murine fibroblast cell line; test: Phototoxicity, neutral red uptake in Balb/c 3T3 fibroblasts; conditions: for PIF (photoirritation factor): ratio of IC50 of unirradiated to irradiated cells; for cytotoxicity towards mouse fibroblasts: with and without UVA exposure
Procedure: d) Phototoxicity Assessment Using the Balb/c 3T3 Murine Fibroblast Cell Line
Balb/c 3T3 cells, which are an immortalized murine fibroblast cell line, were purchased at ATTC and cultured in the medium recommended by the manufacturer (DMEM GlutaMAX, newborn calf serum (BCS), antibiotics). After multiplication, cells were placed in 96-well plates, which were incubated for 24 hours, after which all wells of the plates were washed with 150 μL of balanced salt solution (HBSS). Then, after drying the plates, 100 μL of a solution of the tested compounds in HBSS with 2% FBS was added to each well and incubated for an hour. After this time, some of the plates were irradiated using the Suntest CPS+sunlight simulator from Atlas with appropriate filters cutting off radiation with a wavelength <320 nm (UVA radiation intensity 5 J/cm^2). The second part of the plates was placed in radiation-free conditions for the same period of time. After the exposure time, the liquid was removed from all plates and the wells were washed twice with 150 μL of HBSS, then supplemented with fresh culture medium and incubated for 24 hours in an incubator (37° C., 5% CO2). Viability was assessed in the neutral red uptake test, which is based on the ability of the dye to penetrate only into living cells. Dye uptake was confirmed by absorbance measurement at 540 nm. […] The appropriate coefficients were also calculated: mean phototoxic effect (MPE) and photoirritation factor (PIF). PIF is the ratio of the IC50 values of unirradiated to irradiated cells, while MPE is based on the comparison of concentration-response curves.

[2] = biological target: T1, tyrosinase released from B16-F10 cells (Mus musculus, UniProt P11344); test: Inhibition of tyrosinase activity released from B16-F10 cells; format: cell-based, murine; conditions: 24 h incubation, α-MSH, L-DOPA 0.5 mM
T1 construct: endogenous in cells; host or cells: B16-F10 murine melanoma cells (alpha-MSH stimulated), Triton X-100 lysate
T1 sequence (P11344 19-533): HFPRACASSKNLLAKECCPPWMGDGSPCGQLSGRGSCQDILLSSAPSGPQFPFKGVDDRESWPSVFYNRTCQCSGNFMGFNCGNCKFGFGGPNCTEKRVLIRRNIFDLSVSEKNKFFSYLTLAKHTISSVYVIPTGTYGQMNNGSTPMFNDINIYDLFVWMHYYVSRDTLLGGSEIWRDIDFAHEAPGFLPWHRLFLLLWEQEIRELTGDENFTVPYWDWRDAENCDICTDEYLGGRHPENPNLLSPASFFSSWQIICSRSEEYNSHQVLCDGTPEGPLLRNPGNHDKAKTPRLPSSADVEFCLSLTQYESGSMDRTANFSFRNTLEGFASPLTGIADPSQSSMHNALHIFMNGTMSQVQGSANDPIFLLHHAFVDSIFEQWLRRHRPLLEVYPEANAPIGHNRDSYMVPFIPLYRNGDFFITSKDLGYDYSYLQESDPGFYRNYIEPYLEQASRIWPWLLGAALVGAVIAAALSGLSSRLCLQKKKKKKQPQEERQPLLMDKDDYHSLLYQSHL
Procedure: Inhibition of Tyrosinase Activity Released from B16-F10 Cells
50,000 cells were placed in each well of a 24-well plate (in F10-Ham medium, 1% FBS). After 24 h of culture, the tested compounds were added in fresh medium (DMEM, 1% FBS), with an additional 5 μM of a-melanocorticotropic hormone (a-MSH) in the medium to induce melanogenesis. Three wells on the plate constituted a control sample without the melanogenesis inducer (a-MSH) and without the tested compounds. After 24 hours of incubation under these conditions, the medium was removed and the cells were washed twice with PBS. 100 μL of lysis buffer composed of 90 μL of 50 mM potassium phosphate buffer, 5 μL of 0.1 mM phenylmethylsulfonyl fluoride and 5 μL of 1% Triton X-100 were added to the wells. The plates were placed at −80° C. for 30 minutes. Cell lysates were then centrifuged for 30 min (4° C., 12,000 rpm), and then 80 μL of the supernatant was transferred to 96-well plates. […] After a 30-minute incubation, the absorbance was measured at 475 nm using a microplate reader. The percentage of inhibition of tyrosinase activity was calculated using the formula: [(AC−AT)/Ac]×100, where AC—is the absorbance of the negative control (from wells in which cells were cultured without the tested compounds), AT—is the absorbance of the sample from wells in which cells were cultured in the presence of the test compound.

[3] = system: human reconstructed epidermis Episkin; test: Skin permeation studies in reconstructed human epidermis Episkin; format: in vitro ADME
Procedure: The tested substance A-111 in a macrogol formulation (2% A-111 in the PEG400+PEG800 base) was applied onto the epidermis in an amount of approximately 10 mg/cm^2 (“finite dose application”) using a sterile inoculation loop. The amount applied was weighed accurately. As a control, a macrogol formulation without the test substance was applied onto the epidermis. The finished experimental plate was incubated at 32° C. At specific time intervals, aliquots of the receptor fluid (0.5 mL) were collected for the analysis and replaced with 0.5 mL of fresh receptor fluid. After 24 h of culture, all of the receptor fluid was collected. The examined tissue was washed with cotton buds soaked in methanol. The donor and receptor compartments were washed with methanol, and the epidermis was separated from the inserts and transferred to methanol. Samples were stored at −20° C. until analysis. The content (concentration) of the tested substance A-111 in the receptor fluid and in individual compartments: on the surface of the epidermis, in the epidermis, in the receptor fluid was determined using measurements in a microplate reader at 281 nm on 96-well plates transmitting ultraviolet radiation.
In order to confirm proper bioavailability, studies of the permeation of compound A-111 from a solution in PEG400 were performed in a model of reconstructed human epidermis. […] The tested substance A-111 was applied onto the epidermis in the form of a 2% PEG400 solution in an amount of 15 μL. The finished experimental plate was incubated at 32° C. At specific time intervals, aliquots of the receptor fluid (0.5 mL) were collected for the analysis and replaced with fresh fluid. After 24 h of culture, all of the receptor fluid was collected. The examined tissue was washed with cotton buds soaked in methanol. The donor and receptor compartments were washed with methanol, and the epidermis was separated from the inserts and transferred to methanol. The content (concentration) of the tested substance A-111 in the acceptor fluid and in individual compartments: on the surface of the epidermis, in the epidermis, in the receptor fluid was determined using measurements in a microplate reader at 281 nm on 96-well plates transmitting ultraviolet radiation.
Permeation studies of the A-111 compound from a cosmetic formulation were performed in a model of reconstructed human epidermis. […] 25 μL of the formulation containing the tested compound A-111 was applied to the epidermis. […] The content (concentration) of the tested substance A-111 in the receptor fluid and in individual compartments: on the surface of the epidermis, in the epidermis, in the receptor fluid was determined using measurements in a microplate reader at 281 nm on 96-well plates transmitting ultraviolet radiation.

`O=C(/C=C/c1ccccc1)NCCCCCO` [Compound A-133, (2E)-N-(5-hydroxypentyl)-3-phenylprop-2-enamide] was tested, and the phototoxic potential [1] was “do not have phototoxic potential”, the “PIF (photoirritation factor)” value [1] was “No phototoxicity” and the “cytotoxicity towards mouse fibroblasts” value [1] was “devoid of cytotoxicity”.
In the case of `O=C(/C=C/c1ccc(Cl)cc1)NCCCCCO` [Compound A-111, (2E)-3-(4-chlorophenyl)-N-(5-hydroxypentyl)prop-2-enamide], the phototoxic potential [1] is reported as “do not have phototoxic potential”, the “PIF (photoirritation factor)” value [1] is reported as “No phototoxicity” and the “cytotoxicity towards mouse fibroblasts” value [1] is reported as “devoid of cytotoxicity”. For the same compound, the “inhibition of tyrosinase released from B16-F10 cells” value [2] was “inhibit the activity of tyrosinase released from B16-F10 cells”, the epidermal permeation ([3]; 2% A-111 in macrogol formulation (PEG400+PEG800), about 10 mg/cm^2, 24 h) was “crosses the epidermal barrier” and the “accumulation in the epidermis” value ([3]; 2% A-111 in macrogol formulation, 24 h) was “no accumulation”. For the same compound, the epidermal permeation ([3]; 2% PEG400 solution, 15 μL, 24 h) was “crosses the epidermal barrier” and the epidermal permeation ([3]; released from cosmetic formulation, 25 μL, 24 h) was “crosses the epidermal barrier”.
